Reference: patent US7973056B2, “Triazole derivative or salt thereof” (Fujifilm Finechemicals Co., Ltd, priority 2008, dated 2011)
≈ marks a conversion by molar mass, not a printed value.

Tests used:
[1] = tested on: Candida albicans ATCC 44858; test: Antifungal activity test (in vitro), MIC; format: cell-based; settings: ATCC44858
[2] = tested on: Aspergillus niger ATCC 8740; test: Antifungal activity test (in vitro), MIC; format: cell-based; settings: ATCC8740
Protocol: Minimum inhibitory concentration (MIC) of each of the compounds obtained in Examples 1 to 12 was measured for respective fungi at MOS Pharm Service, by the methods described in Antimicrobial Agents and Chemotherapy, vol. 3, pp. 40-48 (1973), Antimicrobial Agents and Chemotherapy, vol. 33, pp. 215-222 (1989) and Antimicrobial Agents and Chemotherapy, vol. 38, pp. 2362-2368 (1994). The measuring conditions are shown in the following. In this case, Voriconazol was used as a comparative compound. Aspergillus niger ATCC 8740; Cultured at 28° C. for 2 days using potato dextrose broth, and this was used as a cell suspension. Each of the compounds of the invention was adjusted to a concentration of 1% by weight using dimethyl sulfoxide (DMSO) and a medium similar to the respective medium used in the above-mentioned fungal culture, having a final concentration of from 0.001 to 100 μg/ml, was prepared. Each of the inoculation cell suspensions prepared by the above-mentioned methods was inoculated onto this agar plate. […] In this connection, Voriconazol was used as the comparative compound C-1.

`C[C@@H](N1CC=C(c2ccccn2)CC1)[C@](O)(Cn1cncn1)c1ccc(F)cc1F` [I-3, (2R,3R)-2-(2,4-difluorophenyl)-3-(3′,6′-dihydro-2,4′-bipyridin-1′(2′H)-yl)-1-(1,2,4-triazol-1-yl)butan-2-ol] showed an MIC [1] of 1 µg/mL (≈ 2.43 µM) and an MIC [2] of 1 µg/mL (≈ 2.43 µM).
